Measurements from patent US20110028719A1, “SCREENING METHODS FOR AMYLOID BETA MODULATORS” (priority 2006, published 2011).

Biological target: immobilized Aβ fibrils (Homo sapiens, UniProt P05067)
Assay: FAC-MS assay of free Aβ monomer (indicator) binding to immobilized Aβ fibrils in the presence of test compounds
Conditions: not given

Chain of immobilized Aβ fibrils (P05067 672-713 limits assumed): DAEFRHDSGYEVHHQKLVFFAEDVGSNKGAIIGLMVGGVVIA

In the case of `CC1CCC(C(C)C)C(OC(=O)c2ccccc2N)C1` (stereo not shown), the “Aβ Shift” value is reported as 1.

Same assay, conditions: FAC-MS % shift of breakthrough time of free Aβ1-42 monomer (1 μM) on immobilized Aβ fibrils; compounds 1-10 μM in 20 mM NH4OAc, 1% DMSO; void marker M3

First: O[C@H]1[C@H](O)[C@@H](O)[C@H](O)[C@@H](O)[C@@H]1O [AZD-103, scyllo-inositol, reference compound]
Second: O[C@H]1[C@H](O)[C@@H](O)[C@H](O)[C@@H](O)[C@H]1O [Myo, myo-inositol, reference compound]
The “% of Shift” value of the first is higher: 84% for the first, 34% for the second.

First: O[C@H]1[C@H](O)[C@@H](O)[C@@H]2O[C@@H]2[C@@H]1O [Compound C5424, Conduritol B epoxide, reference compound]
Second: OC1C(O)C(O)C(O)C(O)C1O (stereo not shown) [Chiro, chiro-inositol, reference compound]
The “% of Shift” value of the first is lower: 1% for the first, 2% for the second.

Going from `O=P(O)(O)O[C@@H]1C(O)[C@@H](OP(=O)(O)O)[C@@H](O)C(O)[C@H]1O` (stereo partly drawn) [Compound I-3139, D-Myo-inositol-2,4-bis-phosphate, reference compound] to `OC1[C@@H](O)[C@H](O)C(O[C@H]2OC[C@H](O)[C@H](O)[C@H]2O)[C@H](O)[C@H]1O` (stereo partly drawn) [Compound A-9826, 2-O-b-L-Arabinopyranosyl myo-inositol, reference compound], the “% of Shift” value falls from 12% to 3%.

First: O=C(O)[C@]1(O)C[C@@H](O)[C@@H](O)[C@H](O)C1 [Compound 138622, 1R,3R,4R,5R-Quinic acid, reference compound]
Second: C[C@H]1O[C@H](OC2[C@@H](O)[C@@H](O)C(O)[C@H](O)[C@H]2O)[C@@H](N)C[C@@H]1N=C(N)C(=O)O.Cl (stereo partly shown) [Compound K413, Kasugamycin hydrochloride, reference compound]
The “% of Shift” value of the first is higher: 3% for the first, 2% for the second.

Compared with `CCC(=O)OC1C(OC(=O)CC)C(OC(=O)CC)C(OC(=O)CC)C(OC(=O)CC)C1OC(=O)CC` (stereo not shown) [Compound 37387006, 2,3,4,5,6-pentakis(propionyloxy)cyclohexyl propionate], `CC(C)CC(=O)OC1C(O)C(OC(=O)CC(C)C)C(OC(=O)CC(C)C)C(OC(=O)CC(C)C)C1OC(=O)CC(C)C` (stereo not shown) [Compound 37387009, 2-hydroxy-3-4,5,6-tetrakis[(3-methylbutanoyl)oxo]cyclohexyl 3-methylbutanoate] is lower in “% of Shift” value: 4% for the first, 2% for the second.

First: O=C(OC1C(O)C(OC(=O)c2ccccc2)C(OC(=O)c2ccccc2)C(OC(=O)c2ccccc2)C1OC(=O)c1ccccc1)c1ccccc1 (stereo not shown) [Compound 37387010, 2,3,5,6-tatrakis(benzoyloxy)-4-hydroxycyclohexyl benzoate]
Second: CC(=O)OC1C(OC(=O)C(C)(C)C)C(OC(=O)C(C)(C)C)C(OC(C)=O)C(OC(=O)C(C)(C)C)C1OC(=O)C(C)(C)C (stereo not shown) [Compound 37387004, 2,5-bis(acetoxy)-3,4,6-tris[(2,2-dimethylpropanoyl)oxy]cyclohexyl pivalate]
The “% of Shift” value of the first is lower: 2% for the first, 4% for the second.

Same assay, conditions: FAC-MS screen; shift of free Aβ monomer breakthrough on immobilized Aβ fibrils in presence of compound; scale not given

`CCC1CC2(C(=O)NCc3ccco3)CC3(C)CC3(C1)C2` (stereo not shown) and `CN(C)CCNC(=O)C12CC3CC(C)(CC(C)(C3)C1)C2` are the same in “Aβ Shift” value: 1 for the first, 1 for the second.

First: Cc1cc(C(=O)NC2CCCC(C)C2C)c2ccccc2n1 (stereo not shown)
Second: CC1CCCC(NC(=O)c2ccccc2C(=O)O)C1C (stereo not shown)
The “Aβ Shift” value of the first is lower: 1 for the first, 2 for the second.

`CC1CC(NC(=O)c2cccc3ccccc23)CC(C)(C)C1` (stereo not shown) and `CC1CC(NC(=O)C2CCC2)CC(C)(C)C1` (stereo not shown) are the same in “Aβ Shift” value: 0 for the first, 0 for the second.

Compared with `CC1CCCC(C)C1CO` (stereo not shown), `CC1CCCC(NC(=O)c2nc[nH]n2)C1C` (stereo not shown) is lower in “Aβ Shift” value: 1 for the first, 0 for the second.

`CC(=O)NC12CC3CC(C)(C1)CC(NC(C)=O)(C3)C2` and `CC(=O)NC12CC3(C)CC(C)(C1)CC(NC(C)=O)(C3)C2` are the same in “Aβ Shift” value: 1 for the first, 1 for the second.

`CC1CCC(C(C)C)C(OC(=O)C[n+]2ccccc2)C1` (stereo not shown) and `CC1CCC(C(C)C)C(OC(=O)CCc2ccccc2)C1` (stereo not shown) are the same in “Aβ Shift” value: 1 for the first, 1 for the second.

First: CC1CC2(C)CC(C)C1(CO)CO2 (stereo not shown)
Second: CC1CC(C)(C(=O)O)CCC1(C)C (stereo not shown)
The “Aβ Shift” value of the first is higher: 1 for the first, 0 for the second.

`CC12CC3CC(C)(C1)CC(C(=O)Nc1nccs1)(C3)C2` and `CC12CC3CC(C)(C1)CC(C(=O)NO)(C3)C2` are the same in “Aβ Shift” value: 1 for the first, 1 for the second.

Compared with `O=C(O)C1(O)CC(O)C(O)C(O)C1` (stereo not shown), `CC1CC(C(=O)O)CC(C(=O)O)C1` (stereo not shown) is lower in “Aβ Shift” value: 1 for the first, 0 for the second.

`CC(=O)NC12CC3(C)CC(C)(CC(O)(C3)C1)C2` and `CC12CC3(C)CC(C)(C1)CC(NC(=O)N1CCCC1)(C2)C3` are the same in “Aβ Shift” value: 1 for the first, 1 for the second.

Compared with `CC12CC3(C)CC(C)(C1)CC(C(=O)NCC(=O)O)(C2)C3`, `CC12CC3(C)CC(C)(C1)CC(C(=O)NCCO)(C2)C3` is higher in “Aβ Shift” value: 1 for the first, 2 for the second.

`CC1CCC(C(C)C)C(OCC(O)CNC(C)C)C1` (stereo not shown) and `CC1CCC(C(C)C)C(OCC(O)CN2CCOCC2)C1` (stereo not shown) are the same in “Aβ Shift” value: 1 for the first, 1 for the second.

Going from `OCC1CC(Cl)CC(Cl)C1O` (stereo not shown) to `CC(=O)C1C2CC3C(C2Cl)C31` (stereo not shown), the “Aβ Shift” value rises from 0 to 1.

`CC12CC3CC(C)(C1)CC(C(N)=O)(C3)C2` and `COC(=O)C12CC3CC(C)(CC(C)(C3)C1)C2` are the same in “Aβ Shift” value: 1 for the first, 1 for the second.

Compared with `CCC12CC3CC(O)(C1)CC(C(=O)O)(C3)C2` (stereo not shown), `CC12CC3CC(C)(C1)CC(O)(C3)C2` is lower in “Aβ Shift” value: 1 for the first, 0 for the second.

`COCCNC(=O)NC12CC3(C)CC(C)(CC(C)(C3)C1)C2` and `CCCNC(=O)C12CC3(C)CC(C)(CC(C)(C3)C1)C2` are the same in “Aβ Shift” value: 1 for the first, 1 for the second.

`C=CC1CCC(O)C(O)C1` (stereo not shown) and `Nc1ncnc2c1ncn2C1CCC(CO)C(O)C1` (stereo not shown) are the same in “Aβ Shift” value: 1 for the first, 1 for the second.

`CC1CCC(C(C)CS)CC1S` (stereo not shown) and `CC1CCC(C(C)C)C(OC(=O)NN)C1` (stereo not shown) are the same in “Aβ Shift” value: 1 for the first, 1 for the second.

First: CC1CCC(C(C)C)C(OC(=O)C2C3CCCCC32)C1 (stereo not shown)
Second: CC1CCN(CC(=O)OC2CC(C)CCC2C(C)C)CC1 (stereo not shown)
The “Aβ Shift” value of the first is lower: 0 for the first, 1 for the second.

First: CC(NC(=O)C12CC3(C)CC(C)(CC(C)(C3)C1)C2)C(=O)O (stereo not shown)
Second: CC(C)NC(=O)C12CC3(C)CC(C)(CC(C)(C3)C1)C2
The “Aβ Shift” value of the first is higher: 2 for the first, 1 for the second.

`CC12CC3CC(C)(C1)CC(C(=O)Nc1nnn[nH]1)(C3)C2` and `CN(C)C(=S)NC(=O)C12CC3CC(C)(CC(C)(C3)C1)C2` are the same in “Aβ Shift” value: 1 for the first, 1 for the second.

`CC(O)C#CC1(O)C(C)CCCC1(C)C` (stereo not shown) and `CC1C2CC3(C)CC(C(=O)O)(C2)CC1(C)C3` (stereo not shown) are the same in “Aβ Shift” value: 1 for the first, 1 for the second.

Compared with `CC1CC(NC(=O)C2(C)CC2(Cl)Cl)CC(C)(C)C1` (stereo not shown), `CC1CC(OC(=O)CN2CCCCC2)CC(C)(C)C1` (stereo not shown) is higher in “Aβ Shift” value: 0 for the first, 1 for the second.

Compared with `O=C(O[C@@H]1[C@@H](OC(=O)c2ccccc2)[C@H](OC(=O)c2ccccc2)[C@H](O)[C@H](OC(=O)c2ccccc2)[C@H]1OC(=O)c1ccccc1)c1ccccc1`, `CC(C)(C)C(=O)O[C@@H]1[C@@H](OC(=O)C(C)(C)C)[C@H](OC(=O)C(C)(C)C)[C@H](O)[C@H](OC(=O)C(C)(C)C)[C@H]1OC(=O)C(C)(C)C` is higher in “Aβ Shift” value: 2 for the first, 5 for the second.

`C/C(=N\O)C(=O)OC1CC(C)CCC1C(C)C` (stereo not shown) and `CC1CCC(C(C)C)C(OC(=O)C(O)O)C1` (stereo not shown) are the same in “Aβ Shift” value: 1 for the first, 1 for the second.

`CN(C)CCOC(=O)C12CC3(C)CC(C)(CC(C)(C3)C1)C2` and `CC12CC3(C)CC(C)(C1)CC(C(=O)O)(C2)C3` are the same in “Aβ Shift” value: 2 for the first, 2 for the second.

`CNC(=O)C12CC3(C)CC(C)(CC(C)(C3)C1)C2` and `C=CCNC(=O)C12CC3(C)CC(C)(CC(C)(C3)C1)C2` are the same in “Aβ Shift” value: 1 for the first, 1 for the second.

Going from `CC1CCCC(NC(=O)c2n[nH]c(=O)c3ccccc23)C1C` (stereo not shown) to `CC1CCCC(NC(=O)c2ccc3snnc3c2)C1C` (stereo not shown), the “Aβ Shift” value falls from 2 to 1.

Compared with `COc1ccc(C2(O)C(C)CCCC2C)cc1` (stereo not shown), `CCCC1CCC(c2ccc(C(C)=O)cc2)CC1C` (stereo not shown) is higher in “Aβ Shift” value: 0 for the first, 1 for the second.

First: CC1CCCC(NC(=O)NC2CCCCC2)C1C (stereo not shown)
Second: CCN1CCC(NC2CCCC(C)C2C)CC1 (stereo not shown)
The “Aβ Shift” value of the first is lower: 0 for the first, 1 for the second.

Compared with `CC1CCC(C(C)C)C(OC(=O)CSC#N)C1` (stereo not shown), `CC1CCC(C(C)C)C(OC(=O)c2ccco2)C1` (stereo not shown) is higher in “Aβ Shift” value: 1 for the first, 2 for the second.

`CC1(C)CC(=O)C2=C(C1)CC1(C)CC(C)(C)CC2(C#N)C1` (stereo not shown) and `CC1(C)CC2(C)CC3=C([C@H](CO)C(C)(C)C3)C(CO)(C1)C2` (stereo partly shown) are the same in “Aβ Shift” value: 0 for the first, 0 for the second.

`CC12CC3CC(C)(C1)CC(C(=O)CCC(=O)O)(C3)C2` and `CC1CCN(C(=O)C23CC4CC(C)(CC(C)(C4)C2)C3)CC1` are the same in “Aβ Shift” value: 1 for the first, 1 for the second.

Compared with `O=C(O)C1C2C(=O)OC3C(Cl)C1C1(CC1)C32` (stereo not shown), `Cl.NC1C2CC3C1C3C2Cl` (stereo not shown) is higher in “Aβ Shift” value: 0 for the first, 1 for the second.

Compared with `CC12CC3(C)CC(N)(C1)CC(C(=O)O)(C2)C3`, `CC12CC3(C)CC(C)(C1)CC(N)(C2)C3` is lower in “Aβ Shift” value: 2 for the first, 1 for the second.

`CC1CCC(C(C)C)C(OCC[N+](C)(C)C)C1` (stereo not shown) and `CC1CCC(C(C)C)C(OCCC[N+](C)(C)C)C1` (stereo not shown) are the same in “Aβ Shift” value: 2 for the first, 2 for the second.

Compared with `CC1CC(NN(C)C)C(C#N)(C#N)C(C)C1(C#N)C#N` (stereo not shown), `CC1CCC(N(CCCN)Cc2ccco2)CC1C` (stereo not shown) is lower in “Aβ Shift” value: 2 for the first, 1 for the second.

First: CC1CCC(O[C@H]2C=CC(=O)O2)C(C(C)C)C1 (stereo partly shown)
Second: CC1CCC(COC(=O)CN2CCCCC2)C(C)C1 (stereo not shown)
The “Aβ Shift” value of the first is lower: 0 for the first, 1 for the second.

`O=C(O)C1CC(C(=O)O)C(C(=O)O)CC1C(=O)O` (stereo not shown) and `COC(=O)[C@@H]1C[C@H](O)C[C@H](C(=O)OC)C1` are the same in “Aβ Shift” value: 1 for the first, 1 for the second.

Compared with `CC12CC3(C)CC(C)(C1)CC(C1(C)CC(=O)O1)(C2)C3` (stereo not shown), `CCN(CC)CC12CC3CC(C)(CC(C)(C3)C1)C2` is higher in “Aβ Shift” value: 0 for the first, 2 for the second.

`CC1CCCC(N2CNc3nc4ccccc4n3C2)C1C` (stereo not shown) and `CC1CCCC(NC(=O)Nc2cccs2)C1C` (stereo not shown) are the same in “Aβ Shift” value: 2 for the first, 2 for the second.

Going from `BrC1CC2OC2CC1Br` (stereo not shown) to `CC1CCCC(NC(=O)c2cc3c(s2)CSC3)C1C` (stereo not shown), the “Aβ Shift” value rises from 0 to 1.

In the case of `CC12CC3CC(C)(C1)CC(CC(=O)NNC(N)=O)(C3)C2`, the “Aβ Shift” value is reported as 2.

Same assay, conditions: increasing concentrations; breakthrough curves shifted to the left (greater % shift); FIG. 3

In the case of `O[C@H]1[C@H](O)[C@@H](O)[C@H](O)[C@@H](O)[C@@H]1O` [scyllo-cyclohexanehexyl, scyllo-inositol, reference compound], the “effect of increasing concentrations on free Aβ monomer binding time” value is reported as “dose dependent reduction in the free Aβ monomer binding time”.

Same assay, conditions: pretreatment of column with 1 to 10 μM; FIG. 5

With `O[C@H]1[C@H](O)[C@@H](O)[C@H](O)[C@@H](O)[C@@H]1O` [AZD-103, scyllo-inositol, reference compound] the “effect of pretreatment of immobilized Aβ aggregates” value was “prevents binding and/or breaks down of Aβ fibrils”.
